# In article PMC9246869, “Allosteric inhibition of PPM1D serine/threonine phosphatase via an altered conformational state” (Nature Communications, 2022):
# Several values for one entry are separate records, joined by “and”; a condition that tells them apart may be missing. Equal entries are not always repeated.
# Experiments:
# [1] = target: T1, PPM1D1–420 (Homo sapiens, UniProt O15297); experiment: p38 MAPK enzymatic assay (LC/MS, dephosphorylation of T180); format: biochemical; conditions: for P38 Assay, signal relative to 0 nM GSK (=100): PPM1D1-420, individual runs, listed as GSK
# T1 construct: PPM1D1–420 was PCR-amplified from the synthesized gene with BsaI sites; His(6)-SUMO (N, cleaved yes); made in house; host or cells: E. coli BL21 (DE3)
# T1 sequence (O15297 1-420): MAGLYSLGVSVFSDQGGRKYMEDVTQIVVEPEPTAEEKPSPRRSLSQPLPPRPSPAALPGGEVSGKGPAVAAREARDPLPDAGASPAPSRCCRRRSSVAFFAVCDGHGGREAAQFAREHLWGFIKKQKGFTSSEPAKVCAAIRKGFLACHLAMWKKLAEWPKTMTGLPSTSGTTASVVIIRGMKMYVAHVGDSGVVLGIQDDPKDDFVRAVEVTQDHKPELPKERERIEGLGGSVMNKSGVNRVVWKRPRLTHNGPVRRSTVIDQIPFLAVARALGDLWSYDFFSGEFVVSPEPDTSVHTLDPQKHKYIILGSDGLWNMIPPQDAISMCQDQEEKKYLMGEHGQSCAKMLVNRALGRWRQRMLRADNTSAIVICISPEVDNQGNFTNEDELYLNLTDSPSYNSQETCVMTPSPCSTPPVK
# Experimental: (§1) To generate the double phosphorylated form of p38 MAPK for the LC/MS enzymatic PPM1D assay, 20 µM p38 MAPK was incubated with 100 nM MKK6 in 50 mM HEPES pH 7.4, 10 mM ATP, 40 mM MgCl2, and 100 µM TCEP at RT for 2 h. The reaction mixture was diluted 2-fold with 20 mM HEPES pH 7.4, 300 mM NaCl, 100 µM TCEP, and 1 mM MgCl2 and passed over a Superdex 200 26/600 column equilibrated with 20 mM HEPES pH 7.4, 150 mM NaCl, 100 µM TCEP, and 1 mM MgCl2 to remove excess ATP and MKK6 from the phosphorylated p38 MAPK (p38PP) protein. The protein was concentrated and stored in aliquots for single time usage at −80 °C.
# (§2) The enzymatic activity of the PPM1D constructs was measured by quantifying the dephosphorylation of the substrate protein p38PP by LC/MS. Assays were run in 384-well plates (Axygen; #P-384-120SQ-C) in a final volume of 80 µL per well. The buffer consisted of 20 mM HEPES, 20 mM NaCl, 20 mM MgCl2 and 0.1 mM TCEP, at a pH of 7.5. The reaction was initiated by addition of the p38PP substrate to a solution containing 10 nM PPM1D to a final concentration of 300 nM for p38PP. The plate was then incubated at room temperature and the reaction quenched after 15 min increments with formic acid to a final concentration of 6% (v/v) up to 120 min. For IC50 measurements, the GSK2830371 compound was pre-incubated with the PPM1D constructs in a 2% DMSO-containing buffer for 10 min prior to the addition of the substrate and the reactions were quenched after 2 h. In both experiments, BSA was added to a final concentration of 0.2 µM during the quench step as a carrier protein and injection control for the LC/MS. The plate was then sealed and spun down at 1500 × g for 1 min prior to LC/MS analysis. Plates were analyzed within the same day of the quench step.
# (§3) Substrate and product detection was achieved by multiple-reaction monitoring (MRM) using a Waters Acquity UPLC chromatography system connected to an Xevo TQ-XS mass spectrometer (Waters, Milford, MA). Source parameters were set as follows: polarity ES+, capillary 2.0 kV, cone voltage, 50 V; collision energy, 5 V; cone gas flow, 200 L/h; collision gas flow, 0.16 mL/min; source temperature, 150 °C; desolvation temperature, 500 °C; and desolvation gas flow, 800 L/h. Analytes were separated using an Agilent PLRP-S Reversed-Phase column (5 µm; 2.1 × 50 mm, 300 Å Agilent Technologies, Santa Clara, CA) at 60 °C. Sample storage temperature was set to 15 °C. Mobile phases consisted of 0.1% (v/v) formic acid (Millipore EMSURE) in LC/MS grade water (JTBaker) and 0.1% v/v formic acid in acetonitrile (Honeywell). Initial column conditions were set to […]. Proteins were eluted using a 1.5 min gradient of 5–98% acetonitrile at 0.4 ml/min. MassLynx and TargetLynx software (Waters, version 4.2) were used for sample acquisition and data analysis, respectively. Analytes were quantified by integration of peak areas under the curve using the transitions 941.10 to 941.05 m/z for P38PP (substrate) and 939.10 to 939.09 m/z for P38P (product). Areas were normalized for instrumental variation by dividing by the BSA peak area (1209.23 to 1209.2 m/z transition) measured in the same well.
# [2] = target: T2, PPM1DΔhinge (Homo sapiens, UniProt O15297, DEL155-163/G166S/M164G/T165G); experiment: as above; format: biochemical; conditions: for P38 Assay, signal relative to 0 nM GSK (=100): PPM1DΔHinge, individual runs, listed as GSK
# T2 construct: PPM1D1–154-GGS-167–420 (PPM1D∆hinge); His(6)-SUMO (N, cleaved yes); made in house; host or cells: E. coli BL21 (DE3)
# T2 sequence (O15297 with tags, fused parts or gaps DEL155-163/M164G/T165G/G166S): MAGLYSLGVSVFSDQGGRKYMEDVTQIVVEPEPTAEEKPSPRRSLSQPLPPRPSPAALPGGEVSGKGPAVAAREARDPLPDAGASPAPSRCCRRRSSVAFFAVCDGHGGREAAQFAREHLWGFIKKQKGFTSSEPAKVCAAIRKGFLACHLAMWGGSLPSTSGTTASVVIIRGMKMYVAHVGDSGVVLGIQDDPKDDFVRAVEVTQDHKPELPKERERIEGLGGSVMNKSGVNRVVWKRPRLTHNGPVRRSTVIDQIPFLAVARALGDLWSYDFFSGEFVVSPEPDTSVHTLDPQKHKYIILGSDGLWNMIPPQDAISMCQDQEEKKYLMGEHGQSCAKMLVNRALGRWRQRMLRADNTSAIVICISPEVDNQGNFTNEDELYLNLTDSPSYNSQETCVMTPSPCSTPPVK
# Experimental: as §1, §2, §3
smiles,measurement,setting,value
Cc1ncc(Cl)cc1NCc1ccc(C(=O)N[C@@H](CC2CCCC2)C(=O)NC2CC2)s1 [GSK2830371],IC50,"[1]; PPM1D1–420, full length p38 MAPK substrate, LC/MS",~6 nM
same,"P38 Assay, signal relative to 0 nM GSK (=100)",[1]; [GSK] 0.49 nM,93.1001 and 100 and 88.922
same,"P38 Assay, signal relative to 0 nM GSK (=100)",[1]; [GSK] 0.98 nM,86.1215 and 81.7339 and 63.3381
same,"P38 Assay, signal relative to 0 nM GSK (=100)",[1]; [GSK] 1.95 nM,86.7639 and 71.6152 and 63.7723
same,"P38 Assay, signal relative to 0 nM GSK (=100)",[1]; [GSK] 3.9 nM,51.5439 and 51.2694 and 46.219
same,"P38 Assay, signal relative to 0 nM GSK (=100)",[1]; [GSK] 7.8 nM,29.2083 and 28.1523 and 24.0173
same,"P38 Assay, signal relative to 0 nM GSK (=100)",[1]; [GSK] 15.6 nM,16.4584 and 13.8278 and 11.5309
same,"P38 Assay, signal relative to 0 nM GSK (=100)",[1]; [GSK] 31.2 nM,11.2856 and 7.234 and 5.456
same,"P38 Assay, signal relative to 0 nM GSK (=100)",[1]; [GSK] 62.5 nM,6.81 and 5.822 and 3.842
same,"P38 Assay, signal relative to 0 nM GSK (=100)",[1]; [GSK] 125 nM,6.3041 and 6.187 and 2.5614
same,"P38 Assay, signal relative to 0 nM GSK (=100)",[1]; [GSK] 250 nM,4.442 and 3.236 and 2.029
same,"P38 Assay, signal relative to 0 nM GSK (=100)",[1]; [GSK] 500 nM,3.225 and 4.879 and 3.8956
same,increase of IC50 in p38 MAPK assay upon hinge deletion,[2]; PPM1DΔhinge versus PPM1D1–420,100 fold
same,"P38 Assay, signal relative to 0 nM GSK (=100)",[2]; [GSK] 1.953 nM,100.358 and 104.09 and 99.8488
same,"P38 Assay, signal relative to 0 nM GSK (=100)",[2]; [GSK] 3.906 nM,98.4717 and 98.7741 and 94.5709
same,"P38 Assay, signal relative to 0 nM GSK (=100)",[2]; [GSK] 7.813 nM,97.8741 and 98.6995 and 87.7716
same,"P38 Assay, signal relative to 0 nM GSK (=100)",[2]; [GSK] 15.625 nM,91.5216 and 88.9322 and 63.2104
same,"P38 Assay, signal relative to 0 nM GSK (=100)",[2]; [GSK] 31.25 nM,84.0592 and 89.4059 and 56.2735
same,"P38 Assay, signal relative to 0 nM GSK (=100)",[2]; [GSK] 62.5 nM,71.608 and 76.249 and 61.6546
same,"P38 Assay, signal relative to 0 nM GSK (=100)",[2]; [GSK] 125 nM,62.6262 and 54.2715 and 52.5307
same,"P38 Assay, signal relative to 0 nM GSK (=100)",[2]; [GSK] 250 nM,49.6072 and 48.4313 and 45.7898
same,"P38 Assay, signal relative to 0 nM GSK (=100)",[2]; [GSK] 500 nM,38.0355 and 40.9669 and 36.3652
same,"P38 Assay, signal relative to 0 nM GSK (=100)",[2]; [GSK] 1000 nM,32.2867 and 33.3807 and 27.8112
